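All cell lines were grown in 96-well plates and treated with compound for 48 hours. Abbreviation: GI50, concentration required for 50% inhibition of growth. TGI: total growth inhibition.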 Bounds are passed on as bounds.

What all share (assay): DTP human tumour cell line panel, 48 h
Experiment [1] concerns SK-OV-3 ovarian.
The subject of experiment [2] is SK-MEL-28 melanoma.
Experiment [3] has as its system 786-0 renal.
Experiment [4] concerns NCI-H522 lung.
Experiment [5] has as its system HL-60(TB) leukemia.
For experiment [6], the system named is OVCAR-5 ovarian.
For experiment [7], the system named is SF-268 CNS.
Experiment [8] deals with SF-539 CNS.
The test system of experiment [9] is K-562 leukemia.
The test system of experiment [10] is NCI-H23 lung.

For the molecule `NC(=O)CC1(O)C=C(Br)C(=O)C(Br)=C1`, the GI50 – broadly, the concentration giving 50% growth inhibition – was 17.9 µM in experiment [1]; 1.87 µM in experiment [2]; 8.76 µM in [3]; 0.326 µM in experiment [4]; 1.85 µM in experiment [5]; 8.08 µM in [6]. The GI50 was 9.09 µM in experiment [7], 2.95 µM in [8], 2.22 µM in experiment [9] and 8.99 µM in [10]. Also, the TGI (as a rule, the concentration at which net growth stops) was 32.3 µM in [1]; 3.7 µM in experiment [2]; more than 35.7 µM in experiment [3]; 1.44 µM in experiment [4]; 4.64 µM in experiment [5]; 21.4 µM in [6]. Moreover, the TGI in experiment [7] worked out at 21.2 µM; in experiment [8], 9.15 µM; in experiment [9] it was 8.73 µM; in experiment [10] it was 24.6 µM.

Take `Cc1cc(=O)n(-c2c(C)cccc2Cl)c(/C=C(\O)c2ccncc2)n1`: the TGI in experiment [1], in [2], in experiment [3], in [4], in experiment [5] and in experiment [6] was more than 100 µM throughout. Besides, the TGI in [7], in experiment [8], in experiment [9] and in experiment [10] was more than 100 µM each time.

Take `ClCc1ccc(Cn2cnc3c(Cl)ncnc32)cc1`: the GI50 in experiment [1] was 20 µM; in [2], more than 28.1 µM; in experiment [4], 11.5 µM; in experiment [5], 10.1 µM; in experiment [6], 18.2 µM; in experiment [7], 6.03 µM. For the same molecule, the results for the GI50 in experiment [8], in [9] and in experiment [10] were 10.9 µM, 15.4 µM and 6.99 µM, respectively. Further, the total growth inhibition concentration (TGI) in [1] is 47.6 µM; in experiment [2], more than 55.7 µM; in experiment [3] it was more than 20 µM; in experiment [4] it was 75.7 µM; in [5] it was 23.1 µM; in experiment [6] it was 34.7 µM. In addition, the TGI in experiment [7] was 16.5 µM; in [8], 29.2 µM; in experiment [9], more than 63 µM; in experiment [10], 17.3 µM.

For `CCOc1ccc2c(c1)CN(Cc1ccc(Cl)cc1)CO2`, the GI50 in [1] was 29.8 µM; in experiment [2], 14.4 µM; in [3], 14.8 µM; in [4] it was 15.9 µM; in experiment [5] it was 19.2 µM; in experiment [6] it was 17.9 µM. The GI50 was 28.1 µM in [7], 15.8 µM in experiment [8], 17 µM in experiment [9] and 25.8 µM in [10]. Moreover, the TGI in [1] is more than 100 µM; in [2], 28.4 µM; in experiment [3] it was 30.1 µM; in experiment [4], 34 µM; in experiment [5], 42.8 µM; in experiment [6], 46.2 µM. Also, the TGI in [7] is more than 100 µM; in experiment [8] it was 32.4 µM; in experiment [9], 57 µM; in experiment [10], 94.5 µM.

`CN1CCN(c2ccc(NC(=O)c3cncnc3Nc3ccc(OCc4cccc(F)c4)c(Cl)c3)cc2)CC1`: the GI50 in [1] is 10 µM; in experiment [2] it was 0.849 µM; in experiment [3] it was 0.992 µM; in [4], 1.14 µM; in [5] it was 1.3 µM; in experiment [6] it was 1.6 µM. Besides, the GI50 was 4.91 µM in experiment [7], 0.847 µM in experiment [8], 0.799 µM in [9] and 4.01 µM in [10]. Besides, the TGI in experiment [1] was more than 50 µM; in experiment [2] it was 1.56 µM; in experiment [3], 2.03 µM; in experiment [4] it was 3.28 µM; in [5] it was 3.44 µM; in experiment [6], 7.29 µM. Moreover, the TGI was 15.9 µM in [7], 1.6 µM in experiment [8], 1.83 µM in [9] and more than 50 µM in experiment [10].

Regarding `C[C@H](CS)C(=O)N1c2ccccc2C[C@H]1C(=O)O`, the TGI in experiment [1], in experiment [2], in experiment [3], in experiment [4], in [5] and in experiment [6] was more than 100 µM each time. Also, the TGI in experiment [7], in experiment [8], in experiment [9] and in [10] was more than 100 µM throughout.

With `Clc1ccc2ncc(-c3cccc(NC4CNC4)n3)n2c1`, the GI50 was 9.24 µM in experiment [1]; 13 µM in experiment [2]; 7.96 µM in [3]; 6.13 µM in experiment [4]; 4.54 µM in [5]; 6.45 µM in experiment [6]. Further, the GI50 is 8.7 µM in experiment [7], 2.92 µM in experiment [8], 8.9 µM in [9] and 7.66 µM in experiment [10]. Moreover, the TGI in experiment [1] was more than 100 µM; in experiment [2], more than 100 µM; in [3] it was more than 100 µM; in [4] it was 27.9 µM; in [5], 42.2 µM; in experiment [6], more than 100 µM. Moreover, the concentration for total growth inhibition (TGI) in experiment [7] was 33 µM; in experiment [8], 17.3 µM; in experiment [9], more than 100 µM; in experiment [10] it was 36.3 µM.

For `COc1ccc(Cn2cc3c(c2)-c2oncc2CC3)cc1OC`, the GI50 was 0.152 µM in [1]; 0.326 µM in [2]; 0.536 µM in experiment [3]; 0.146 µM in experiment [4]; 0.126 µM in experiment [5]; 0.339 µM in [6]. Moreover, the GI50 in experiment [7] was 0.43 µM; in experiment [8] it was 0.14 µM; in [9], 0.163 µM; in experiment [10], 0.2 µM. Also, the TGI in [1] is 1.14 µM; in [2] it was more than 50 µM; in experiment [3], more than 21.2 µM; in experiment [4], 0.677 µM; in experiment [5] it was 0.439 µM; in experiment [6], more than 41.9 µM. Besides, the TGI is more than 50 µM in [7], 0.559 µM in [8], more than 16.6 µM in experiment [9] and more than 25.3 µM in experiment [10].

(Values after PubChem BioAssay (NCI).)
